Measurements reported in ChEMBL document CHEMBL1201862, “PubChem BioAssay data set” (2004).
Active and inactive are the calls of the source.

system: not listed separately; assay: viability of uninfected HEp-2 cells – cell-based, HTS, cytotoxicity control for RSV inhibitor project, dose response (AID 2410); type: functional; conditions: human respiratory syncytial virus

Question: Which CC50 does the source give for Cc1ccc2c[nH]nc2c1[N+](=O)[O-] here?
Answer: The CC50 was 42.8 µM (active).

Question: With C(=N\Nc1nc(N2CCCCCC2)nc(N2CCCCCC2)n1)/c1ccccc1 as the compound, how does the CC50 read?
Answer: The CC50 was 28.4 µM (active).

Question: Which CC50 does the source give for O=c1c(-c2ccccc2)coc2cc(O)ccc12 [7-HYDROXY ISOFLAVONE] here?
Answer: Its CC50 is 46.3 µM (active).

Question: Which CC50 does the source give for COc1ccc(-c2cnc(SCC(=O)Nc3nc(C(C)(C)C)cs3)n2Cc2ccco2)cc1 here?
Answer: Its CC50 is 9.59 µM (active).

Question: For Oc1cccc(Nc2nc(O)c(/C=C3\C=Nc4ccccc43)s2)c1, which CC50 is on record?
Answer: The CC50 was 15.3 µM (active).

Question: Which CC50 does the source give for CCOC(=O)c1c(NC(=O)/C=C\C(=O)O)sc(C)c1-c1ccccc1 here?
Answer: Its CC50 is 19.4 µM (active).

Question: For O=C1NC(=O)/C(=C/c2c[nH]c3ccc(Br)cc23)N1, which CC50 is on record?
Answer: Its CC50 is 24.8 µM (active).

Question: For COc1ccc(C2CC(c3ccc(Br)cc3)=NN2C(=O)CSC2=NCCS2)cc1 (stereo unspecified), which CC50 is on record?
Answer: Its CC50 is 24.1 µM (active).

Question: Which CC50 does the source give for O=C1C=C(c2cc(C(F)(F)F)cc(C(F)(F)F)c2)C[C@@H](c2ccc(Cl)cc2)C1 here?
Answer: The CC50 was 17.3 µM (active).

Question: Which CC50 does the source give for CCOC(=O)c1ccc(COC(=O)c2ccc3c(c2)-c2ccccc2C3=O)cc1 here?
Answer: Its CC50 is 20.8 µM (active).

Question: With O=CNn1cnc2c(oc3nc(-c4ccccc4)cc(-c4ccco4)c32)c1=O as the compound, how does the CC50 read?
Answer: The CC50 was 9.82 µM (active).

system: not listed separately; assay: alpha-synuclein stem-loop luciferase translation blockers – H4 neuroglioma cells, luminescence, confirmation (AID 1988); type: functional, cell-based; conditions: not given

Question: With CCOC(=O)c1c(-c2cccs2)csc1NC(=O)CN1CCOCC1 as the compound, how does the EC50 read?
Answer: The EC50 was > 120 µM (not active).

Question: Which EC50 does the source give for Oc1[nH]c2ccc(Br)cc2c1N=NC(S)=Nc1ccc(F)cc1 here?
Answer: Its EC50 is 9.77 µM (active).

Question: For COc1cccc(CNc2nc(SC)ncc2CO)c1, which EC50 is on record?
Answer: The EC50 was > 120 µM (not active).

Question: Which EC50 does the source give for OC(CNCCc1ccccc1)COc1ccc(OCC(O)CNCCc2ccccc2)cc1 (stereo unspecified) here?
Answer: The EC50 was 8.27 µM (active).

Question: Which EC50 does the source give for COC(=O)Nc1nc2cc(C(=O)c3ccc(F)cc3)ccc2[nH]1 [FLUBENDAZOLE] here?
Answer: Its EC50 is < 0.1 µM (active).

Question: For CCc1ccc(C2=NN(CCC(=O)NC(C)CCc3ccccc3)C(=O)CC2)cc1 (stereo unspecified), which EC50 is on record?
Answer: The EC50 was 119 µM (active).

target: T1, Cytochrome P450 1A2 (Homo sapiens, UniProt P05177); conditions: not given;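 note: PubChem cytochrome P450 panel assay, CYP1A2 panel member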
T1 sequence (P05177 whole entry): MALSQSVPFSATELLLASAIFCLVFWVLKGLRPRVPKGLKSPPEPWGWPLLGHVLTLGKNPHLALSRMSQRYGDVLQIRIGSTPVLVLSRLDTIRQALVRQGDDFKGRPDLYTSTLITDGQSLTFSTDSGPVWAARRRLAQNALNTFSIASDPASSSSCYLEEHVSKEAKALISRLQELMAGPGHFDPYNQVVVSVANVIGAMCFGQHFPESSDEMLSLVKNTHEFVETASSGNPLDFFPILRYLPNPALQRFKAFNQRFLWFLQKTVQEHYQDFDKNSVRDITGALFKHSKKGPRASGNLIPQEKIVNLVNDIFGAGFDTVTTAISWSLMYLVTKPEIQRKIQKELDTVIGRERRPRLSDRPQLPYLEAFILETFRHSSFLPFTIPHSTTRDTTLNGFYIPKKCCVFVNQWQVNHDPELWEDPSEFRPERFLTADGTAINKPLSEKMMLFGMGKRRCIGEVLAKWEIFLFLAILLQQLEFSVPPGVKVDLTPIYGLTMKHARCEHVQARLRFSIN

Question: With O=C(Nc1cc2ccccc2oc1=O)C1CCCCC1 as the compound, how does the AC50 read?
Answer: Its AC50 is 2.51 µM (inconclusive).

Question: With Cc1cc2c(cc1C)NC(c1nc3ccccc3[nH]1)C1=C(O)CC(C)(C)CC1=N2 (stereo unspecified) as the compound, how does the AC50 read?
Answer: Its AC50 is 25.1 µM (inconclusive).

target: T2, Streptokinase A (Streptococcus pyogenes serotype M1, UniProt P10520); assay: viability-normalized secreted streptokinase activity reduction – plasminogen activation absorbance, OD405, dose response (AID 1914); type: functional, Streptococcus pyogenes M1 GAS; conditions: not given;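 note: secreted streptokinase activity via plasminogen activation per viability signal from cell pellet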
T2 sequence (P10520 whole entry): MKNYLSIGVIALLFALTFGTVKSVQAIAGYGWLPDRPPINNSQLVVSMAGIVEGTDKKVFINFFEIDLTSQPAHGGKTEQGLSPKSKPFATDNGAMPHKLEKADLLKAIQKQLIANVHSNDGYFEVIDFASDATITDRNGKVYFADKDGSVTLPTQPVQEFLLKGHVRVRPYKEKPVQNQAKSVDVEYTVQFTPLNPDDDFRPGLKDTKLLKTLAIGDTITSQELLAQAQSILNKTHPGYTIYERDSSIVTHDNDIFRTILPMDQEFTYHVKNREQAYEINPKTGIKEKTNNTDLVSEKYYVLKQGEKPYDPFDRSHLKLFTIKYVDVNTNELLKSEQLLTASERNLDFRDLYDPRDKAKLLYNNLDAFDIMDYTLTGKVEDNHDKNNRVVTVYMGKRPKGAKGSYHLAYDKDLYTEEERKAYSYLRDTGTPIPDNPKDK

Question: For c1ccc(CCNc2nc(-c3ccccn3)cs2)cc1, which EC50 is on record?
Answer: Its EC50 is > 150 µM (not active).

Question: For CC(C)c1nc(N2CCCC2)c(C#N)c2c1CCCC2, which EC50 is on record?
Answer: Its EC50 is > 150 µM (not active).

Question: Which EC50 does the source give for CC(C)S(=O)(=O)c1csc(NC(=O)Nc2ccc(Cl)cc2)c1Cl here?
Answer: The EC50 was 74.3 µM (active).

system: Streptococcus sp. 'group A'; assay: Streptococcus pyogenes SK(-)GAS viability under kanamycin – luminescence, BacTiterGlo, confirmation, counter-screen for streptokinase expression inhibitor project, dose response (AID 1900); type: functional, organism-based; conditions: not given

Question: With c1ccc(CCNc2nc(-c3ccccn3)cs2)cc1 as the compound, how does the EC50 read?
Answer: The EC50 was 7.29 µM (active).

Question: Which EC50 does the source give for CC(C)c1nc(N2CCCC2)c(C#N)c2c1CCCC2 here?
Answer: The EC50 was 4.2 µM (active).

Question: With Oc1[nH]c2ccc(Br)cc2c1N=NC(S)=Nc1ccc(F)cc1 as the compound, how does the EC50 read?
Answer: Its EC50 is 0.074 µM (active).

Question: For CC(C)S(=O)(=O)c1csc(NC(=O)Nc2ccc(Cl)cc2)c1Cl, which EC50 is on record?
Answer: The EC50 was 12.1 µM (active).

system: not listed separately; assay: NIH3T3 cell viability loss – ATP luminescence, mouse fibroblasts, counter-screen, dose response (AID 2010); type: functional, cell-based; conditions: not given;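 note: cells exposed to compound for about 90 hours before reading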

Question: Which EC50 does the source give for Oc1[nH]c2ccc(Br)cc2c1N=NC(S)=Nc1ccc(F)cc1 here?
Answer: The EC50 was 7.03 µM (active).

system: not listed separately; assay: Luminescence Cell-Based Dose Response HTS to Identify Inhibitors of 5'UTR Stem-Loop Driven Prion Protein mRNA Translation in H4 Neuroglioblastoma Cells. [Related pubchem assays: 1827 (Project Summary), 1813 (Primary HTS)]; type: functional; conditions: not given

Question: For CCOC(=O)c1c(-c2cccs2)csc1NC(=O)CN1CCOCC1, which EC50 is on record?
Answer: Its EC50 is 80.6 µM (active).

Question: For Oc1[nH]c2ccc(Br)cc2c1N=NC(S)=Nc1ccc(F)cc1, which EC50 is on record?
Answer: The EC50 was > 120 µM (not active).

Question: For COc1cccc(CNc2nc(SC)ncc2CO)c1, which EC50 is on record?
Answer: The EC50 was 27.1 µM (active).

Question: For OC(CNCCc1ccccc1)COc1ccc(OCC(O)CNCCc2ccccc2)cc1 (stereo unspecified), which EC50 is on record?
Answer: Its EC50 is > 120 µM (not active).

Question: For COC(=O)Nc1nc2cc(C(=O)c3ccc(F)cc3)ccc2[nH]1 [FLUBENDAZOLE], which EC50 is on record?
Answer: Its EC50 is 0.225 µM (active).

Question: For CCc1ccc(C2=NN(CCC(=O)NC(C)CCc3ccccc3)C(=O)CC2)cc1 (stereo unspecified), which EC50 is on record?
Answer: Its EC50 is 23.8 µM (active).

system: not listed separately; assay: Trypanosoma cruzi growth suppression in host cells – NIH3T3 host cells, beta-gal luminescence, confirmation (AID 2044); type: functional, cell-based; conditions: not given;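 note: intracellular parasites grown in NIH/3T3 mouse fibroblasts as host cells; luminescent beta-galactosidase reporter signal from transgenic T. cruzi replicating inside host cells; inhibitors lower the luminescence signal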

Question: For Oc1[nH]c2ccc(Br)cc2c1N=NC(S)=Nc1ccc(F)cc1, which EC50 is on record?
Answer: The EC50 was 1.63 µM (active).

system: not listed separately; assay: luciferase reporter signal suppression in cells – H4 neuroglioma cells, luminescence, dose response (AID 1990); type: functional, cell-based; conditions: not given

Question: Which EC50 does the source give for CCOC(=O)c1c(-c2cccs2)csc1NC(=O)CN1CCOCC1 here?
Answer: Its EC50 is 20.9 µM (active).

Question: With Oc1[nH]c2ccc(Br)cc2c1N=NC(S)=Nc1ccc(F)cc1 as the compound, how does the EC50 read?
Answer: Its EC50 is 15.5 µM (inconclusive).

Question: Which EC50 does the source give for COc1cccc(CNc2nc(SC)ncc2CO)c1 here?
Answer: Its EC50 is 13.5 µM (active).

Question: For OC(CNCCc1ccccc1)COc1ccc(OCC(O)CNCCc2ccccc2)cc1 (stereo unspecified), which EC50 is on record?
Answer: Its EC50 is 9.08 µM (active).

Question: For COC(=O)Nc1nc2cc(C(=O)c3ccc(F)cc3)ccc2[nH]1 [FLUBENDAZOLE], which EC50 is on record?
Answer: The EC50 was 0.323 µM (active).

Question: Which EC50 does the source give for CCc1ccc(C2=NN(CCC(=O)NC(C)CCc3ccccc3)C(=O)CC2)cc1 (stereo unspecified) here?
Answer: The EC50 was > 120 µM (not active).

system: Streptococcus; assay: GAS UMAA2166 growth inhibition – luminescence, BacTiterGlo, counter-screen for streptokinase expression inhibitor project, dose response (AID 1915); type: functional, organism-based; conditions: not given;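 note: potency for reduction of bacterial viability or growth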

Question: Which EC50 does the source give for c1ccc(CCNc2nc(-c3ccccn3)cs2)cc1 here?
Answer: Its EC50 is 14.2 µM (active).

Question: With CC(C)c1nc(N2CCCC2)c(C#N)c2c1CCCC2 as the compound, how does the EC50 read?
Answer: Its EC50 is 7.01 µM (active).

Question: Which EC50 does the source give for Oc1[nH]c2ccc(Br)cc2c1N=NC(S)=Nc1ccc(F)cc1 here?
Answer: The EC50 was 1.39 µM (active).

Question: Which EC50 does the source give for CC(C)S(=O)(=O)c1csc(NC(=O)Nc2ccc(Cl)cc2)c1Cl here?
Answer: Its EC50 is > 150 µM (not active).

target: Cytochrome P450 2C19 (Homo sapiens, UniProt P33261); assay: Cytochrome panel assay with activity outcomes. Panel member name: p450-cyp2c19 Compounds with AC50 equal or less than 10 uM are considered active; type: functional; conditions: read-out: AC50
Sequence (P33261 whole entry): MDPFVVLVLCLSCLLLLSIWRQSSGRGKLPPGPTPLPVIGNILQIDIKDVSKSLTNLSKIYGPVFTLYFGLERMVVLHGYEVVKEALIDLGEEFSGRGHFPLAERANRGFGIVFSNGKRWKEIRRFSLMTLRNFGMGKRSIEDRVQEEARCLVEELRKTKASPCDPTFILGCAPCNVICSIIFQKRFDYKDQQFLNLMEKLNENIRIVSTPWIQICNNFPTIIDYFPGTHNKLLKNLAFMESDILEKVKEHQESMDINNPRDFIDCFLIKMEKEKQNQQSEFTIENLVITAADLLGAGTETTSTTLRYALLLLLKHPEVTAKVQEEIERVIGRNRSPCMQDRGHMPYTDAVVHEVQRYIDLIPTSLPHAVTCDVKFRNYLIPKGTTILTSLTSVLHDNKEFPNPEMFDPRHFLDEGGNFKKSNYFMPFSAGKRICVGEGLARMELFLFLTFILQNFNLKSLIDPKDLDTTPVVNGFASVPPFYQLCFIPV

Question: For O=C(Nc1cc2ccccc2oc1=O)C1CCCCC1, which AC50 is on record?
Answer: Its AC50 is 28.2 µM (inconclusive).

Question: Which AC50 does the source give for Cc1cc2c(cc1C)NC(c1nc3ccccc3[nH]1)C1=C(O)CC(C)(C)CC1=N2 (stereo unspecified) here?
Answer: Its AC50 is 1.78 µM (inconclusive).
